In patent US11311522B1 (Cavion, Inc., priority 2018, dated 2022):
Read-outs that look alike come from different tables or passages of the source.

Key:
[1] = Simulated Css and total active moiety, 10 mg BID; set-up: species or system human; conditions: for Css, estimated mean / Steady-state AUC24, estimated mean: CX-8998 10 mg twice daily fasted; for Cu, ss_adj: adjusted for fu and potency, 10 mg BID; for Cp, ss / Cu, ss: simulated from CX-8998 10 mg BID
Cav3.3 = biological target: T1, Cav3.3 (Homo sapiens, UniProt Q9P0X4); assay: Cav3.3 FLIPR calcium influx assay (HEK 293 cells); format: cell-based; conditions: for IC50: Cav3.3 FLIPR assay; for State dependence: hyperpolarized versus depolarized FLIPR potency
T1 construct: expressed in transfected cells; host or cells: HEK 293
T1 sequence (Q9P0X4 whole entry, species assumed): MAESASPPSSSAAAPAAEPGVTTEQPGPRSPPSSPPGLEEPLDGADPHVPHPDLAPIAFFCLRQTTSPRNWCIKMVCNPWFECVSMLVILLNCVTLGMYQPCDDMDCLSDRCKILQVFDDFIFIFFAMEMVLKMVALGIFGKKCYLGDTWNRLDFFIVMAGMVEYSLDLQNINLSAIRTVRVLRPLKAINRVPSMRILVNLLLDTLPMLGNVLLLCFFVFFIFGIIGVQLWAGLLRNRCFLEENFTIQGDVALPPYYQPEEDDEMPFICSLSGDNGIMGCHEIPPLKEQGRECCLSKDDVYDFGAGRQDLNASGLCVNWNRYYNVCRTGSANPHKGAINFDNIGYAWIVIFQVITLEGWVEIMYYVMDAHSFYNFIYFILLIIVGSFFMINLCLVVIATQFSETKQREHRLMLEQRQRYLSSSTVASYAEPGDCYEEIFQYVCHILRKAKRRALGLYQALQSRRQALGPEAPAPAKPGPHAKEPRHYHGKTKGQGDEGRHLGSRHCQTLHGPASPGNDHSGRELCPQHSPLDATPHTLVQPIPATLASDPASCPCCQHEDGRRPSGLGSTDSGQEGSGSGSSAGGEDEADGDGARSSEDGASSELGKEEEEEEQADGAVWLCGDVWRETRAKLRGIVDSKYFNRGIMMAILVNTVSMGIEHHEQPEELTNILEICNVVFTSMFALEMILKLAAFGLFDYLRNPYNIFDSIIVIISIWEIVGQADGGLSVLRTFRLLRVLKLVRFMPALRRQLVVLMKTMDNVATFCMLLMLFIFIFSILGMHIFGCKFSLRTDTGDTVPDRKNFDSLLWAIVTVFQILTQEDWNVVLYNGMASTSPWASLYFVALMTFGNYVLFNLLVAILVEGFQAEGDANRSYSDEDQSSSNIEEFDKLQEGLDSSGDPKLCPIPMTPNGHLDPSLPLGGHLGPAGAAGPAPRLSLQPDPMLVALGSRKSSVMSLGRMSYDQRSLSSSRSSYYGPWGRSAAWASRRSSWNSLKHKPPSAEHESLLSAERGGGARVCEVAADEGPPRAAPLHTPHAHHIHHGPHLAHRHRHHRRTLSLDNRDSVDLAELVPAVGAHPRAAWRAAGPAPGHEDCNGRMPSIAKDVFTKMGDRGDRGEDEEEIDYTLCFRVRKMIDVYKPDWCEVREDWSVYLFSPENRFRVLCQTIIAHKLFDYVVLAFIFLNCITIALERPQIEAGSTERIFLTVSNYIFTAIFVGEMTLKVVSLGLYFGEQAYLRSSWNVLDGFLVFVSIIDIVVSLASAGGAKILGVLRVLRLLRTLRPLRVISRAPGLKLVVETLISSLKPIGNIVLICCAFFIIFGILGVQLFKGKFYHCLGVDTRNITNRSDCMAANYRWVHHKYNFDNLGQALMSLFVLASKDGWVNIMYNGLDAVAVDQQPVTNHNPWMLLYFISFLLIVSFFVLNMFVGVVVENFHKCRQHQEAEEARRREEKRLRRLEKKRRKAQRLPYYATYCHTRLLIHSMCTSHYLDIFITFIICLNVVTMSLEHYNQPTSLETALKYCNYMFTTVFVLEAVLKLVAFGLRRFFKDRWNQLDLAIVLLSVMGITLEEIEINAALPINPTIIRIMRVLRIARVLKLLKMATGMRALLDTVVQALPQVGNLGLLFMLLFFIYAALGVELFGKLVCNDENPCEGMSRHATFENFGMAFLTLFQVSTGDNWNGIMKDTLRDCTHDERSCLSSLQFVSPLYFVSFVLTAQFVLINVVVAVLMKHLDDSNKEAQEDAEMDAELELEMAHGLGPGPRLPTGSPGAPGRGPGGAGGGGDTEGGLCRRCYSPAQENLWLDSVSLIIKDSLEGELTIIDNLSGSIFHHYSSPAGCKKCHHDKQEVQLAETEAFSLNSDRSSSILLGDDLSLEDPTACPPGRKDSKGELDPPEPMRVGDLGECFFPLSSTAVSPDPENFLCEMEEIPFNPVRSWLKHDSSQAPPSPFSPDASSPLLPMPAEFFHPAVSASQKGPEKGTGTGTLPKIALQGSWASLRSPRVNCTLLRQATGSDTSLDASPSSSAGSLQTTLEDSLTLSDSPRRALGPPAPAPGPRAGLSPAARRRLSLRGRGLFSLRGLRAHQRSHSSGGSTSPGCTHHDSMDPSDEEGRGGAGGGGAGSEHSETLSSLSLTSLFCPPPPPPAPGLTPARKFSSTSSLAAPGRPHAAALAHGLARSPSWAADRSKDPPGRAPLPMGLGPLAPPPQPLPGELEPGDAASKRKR

WAG/Rij rats = assay: WAG/Rij rat model of absence epilepsy; format: in vivo; conditions: 10 mg/kg oral
From the text: Other T-type antagonists from structurally diverse series have shown similar efficacy in this model (Broicher, 2007; Blumenfeld, 2008; Broicher, 2008; Shipe, 2008; Yang, 2008; Uebele, 2009; Russo, 2010; Russo, 2011).
Data were scored with automated seizure analysis software, averaged, and normalized to enable treatment comparisons (FIG. 76)
Control animals received vehicle administrations. […] Source: Merck TTA Package Description (FIG. 79).

Pharmacokinetics in rats = format: in vivo, rat; conditions: for Ratio of AUC24 (metabolite/CX-8998): Rat, single oral dose 10 mg/kg of CX-8998; for AUC: rat, plasma, po, 10 mg/kg, read-out: AUC24
Experimental: (§3) The validity and reproducibility of the assays were determined, and the precision and accuracy for calibration standards and quality control samples were examined. […] The analytes were stable in plasma under the storage and assay conditions. […] Assay performances were satisfactory and met acceptance criteria for system performance suitability, quantitation range, calibration linearity, assay accuracy and precision, and assay recovery.

Pharmacokinetics in dogs = format: in vivo, dog; conditions: for AUC: male, dog, plasma, po, 0.5 mg/kg, read-out: AUC24
Experimental: as §3

[2] = Pharmacokinetics in rhesus monkeys; format: in vivo, rhesus monkey; conditions: for AUC: male, rhesus monkey, plasma, po, 2 mg/kg, read-out: AUC24
Experimental: as §3

[3] = In vitro plasma protein binding, rat; format: in vitro ADME
From the text: (§1) CX-8998 distributes readily to the brain in rats and to brain and cerebral spinal fluid (CSF) in dogs.

[4] = In vitro plasma protein binding, dog; format: in vitro ADME
From the text: as §1

[5] = In vitro plasma protein binding, monkey; format: in vitro ADME
From the text: as §1

P-glycoprotein = P-glycoprotein bidirectional transport; format: in vitro ADME, human, monkey, and rat
From the text: (§2) Glucuronide conjugates of the oxygenated metabolites are detected in human, monkey, and dog hepatocyte preparations. […] However, the abundance of CYP3A5, CYP2C19, and CYP2D6 in human liver microsomes is low (2%-5%) relative to the primary contributors, CYP3A4 (˜30%) and CYP2C9 (˜20%). […] Information on reproductive and developmental toxicology was obtained in a 28-day pivotal female fertility study in rats and in preliminary embryo-fetal development studies in rats and rabbits.

[6] = biological target: T2, breast cancer resistance protein (BCRP) (Homo sapiens, UniProt Q9UNQ0); assay: BCRP transport; format: in vitro ADME
T2 sequence (Q9UNQ0 1-655): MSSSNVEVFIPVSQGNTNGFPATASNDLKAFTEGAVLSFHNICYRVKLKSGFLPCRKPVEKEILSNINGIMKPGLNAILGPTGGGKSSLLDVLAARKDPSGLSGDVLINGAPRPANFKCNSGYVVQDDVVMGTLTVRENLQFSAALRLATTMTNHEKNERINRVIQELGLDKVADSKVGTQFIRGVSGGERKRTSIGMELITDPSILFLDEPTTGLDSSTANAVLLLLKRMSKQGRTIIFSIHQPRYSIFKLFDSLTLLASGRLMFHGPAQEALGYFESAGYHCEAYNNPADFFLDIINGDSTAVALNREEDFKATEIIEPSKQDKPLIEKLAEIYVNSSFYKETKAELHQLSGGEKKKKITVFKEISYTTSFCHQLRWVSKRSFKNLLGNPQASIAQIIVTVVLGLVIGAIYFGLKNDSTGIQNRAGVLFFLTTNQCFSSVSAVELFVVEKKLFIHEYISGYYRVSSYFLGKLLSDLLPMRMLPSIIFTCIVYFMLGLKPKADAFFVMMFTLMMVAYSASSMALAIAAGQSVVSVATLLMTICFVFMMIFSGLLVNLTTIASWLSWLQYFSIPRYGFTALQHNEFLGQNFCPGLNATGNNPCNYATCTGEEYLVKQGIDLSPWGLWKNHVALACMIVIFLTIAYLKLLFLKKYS
From the text: as §2

[7] = for Day 90 Free Margin for AUC24 at NOAEL for Dog 90-Day Toxicology / Day 90 Free Plasma AUC24 at NOAEL for Dog 90-Day Toxicology: Beagle; for Day 90 Free Plasma AUC24 at NOAEL for Dog 90-Day Toxicology: 30 mg/kg/day; for Day 90 Free Plasma AUC24 at NOAEL for Rat 90-Day Toxicology: 300 mg/kg/day
in vivo = conditions: rat, po
clinical = conditions: human, plasma, oral, 8 mg
From the text: Subjects will be screened for study eligibility within 28 days before administration of the first dose of study drug. Subjects who meet the study eligibility criteria will be admitted to the clinical research unit in the afternoon of the day before administration of the first dose of study drug (Period 1/Day −1).
Treatments A, B, and C will be separated by a minimum 7-day washout period. […] Administration of Treatment D may be separated from administration of Treatments A, B, and C by approximately 4 weeks to allow for analysis of the bioanalytical samples from the first 3 treatments.

[8] = 4-week oral toxicology in Beagle dogs; conditions: dog, in vivo
[9] = 90-day oral toxicology in Beagle dogs; conditions: Beagle, dog, in vivo, po
[10] = M01, middle-aged and elderly men
[11] = M01, middle-aged and elderly women
[12] = depolarized, read-out: Depolarized FLIPR potency
[13] = hyperpolarized, read-out: Hyperpolarized FLIPR potency
[14] = rat plasma, read-out: In vitro plasma protein binding (converted)
[15] = dog plasma, read-out: In vitro plasma protein binding (converted)
[16] = read-out: Free fraction in dog plasma
[17] = M02, middle-aged and elderly men
[18] = M02, middle-aged and elderly women

C=C(C)c1ccc(CC(=O)N[C@H](C)c2ccc(OCC(F)(F)F)cn2)cc1 [M01]
Potency relative to CX-8998 [1]: 1.57
Css, estimated mean [1, 10]: 1167 nM
Steady-state AUC24, estimated mean [1, 10]: 28.008 µM·h
Css, estimated mean [1, 11]: 1146 nM
Steady-state AUC24, estimated mean [1, 11]: 27.504 µM·h
Css, estimated mean ([1]; M01, young men): 771 nM
Steady-state AUC24, estimated mean ([1]; M01, young men): 18.504 µM·h
Cu, ss_adj [1]: <1.2 nM
Cp, ss [1]: 771 nM
Cu, ss [1]: <0.8 nM
IC50 (Cav3.3; [12]): 2.3 nM
IC50 (Cav3.3; [13]): 86 nM
State dependence (Cav3.3): 37 fold
Percent of inhibition (WAG/Rij rats): 71%
Ratio of AUC24 (metabolite/CX-8998) (Pharmacokinetics in rats; Female): 0.52
Ratio of AUC24 (metabolite/CX-8998) (Pharmacokinetics in rats; Male): 0.63
AUC (Pharmacokinetics in rats; female): 8.7 µM·h
AUC (Pharmacokinetics in rats; male): 3.7 µM·h
Ratio of AUC24 (metabolite/CX-8998) (Pharmacokinetics in dogs; Dog, Male, single oral dose 0.5 mg/kg of CX-8998): 0.21
AUC (Pharmacokinetics in dogs): 1.4 µM·h
Ratio of AUC24 (metabolite/CX-8998) ([2]; Monkey, Male, single oral dose 2 mg/kg of CX-8998): 0.24
AUC [2]: 0.5 µM·h
fraction unbound [3, 14]: 0.004
fraction unbound ([3]; rats, read-out: free fraction): 0.004
fraction unbound [4, 15]: 0.003
fraction unbound ([4]; dogs, read-out: free fraction): 0.003
fraction unbound [4, 16]: 0.003
fraction unbound [5]: 0.004
P-glycoprotein substrate or inhibitor activity (P-glycoprotein): did not demonstrate any activity as a substrate or inhibitor
Inhibition of BCRP transport ([6]; 30 μM): 57%
Day 90 Free Margin for AUC24 at NOAEL for Dog 90-Day Toxicology ([7]; female): >16
Day 90 Free Plasma AUC24 at NOAEL for Dog 90-Day Toxicology ([7]; female): <309 nM · hr
Day 90 Free Margin for AUC24 at NOAEL for Rat 90-Day Toxicology ([7]; female, rat): >49
Day 90 Free Plasma AUC24 at NOAEL for Rat 90-Day Toxicology ([7]; female, rat): <936 nM · hr
Day 90 Free Margin for AUC24 at NOAEL for Dog 90-Day Toxicology ([7]; male): >19
Day 90 Free Plasma AUC24 at NOAEL for Dog 90-Day Toxicology ([7]; male): <363 nM · hr
Day 90 Free Margin for AUC24 at NOAEL for Rat 90-Day Toxicology ([7]; male, rat): >26
Day 90 Free Plasma AUC24 at NOAEL for Rat 90-Day Toxicology ([7]; male, rat): <500 nM · hr
AUC (in vivo; female, 5 mg/kg): 5.02 µM·h
AUC (in vivo; female, 15 mg/kg): 20.3 µM·h
AUC (in vivo; female, 100 mg/kg): 231 µM·h
AUC (in vivo; female, 300 mg/kg): 234 µM·h
AUC (in vivo; male, 5 mg/kg): 4.33 µM·h
AUC (in vivo; male, 15 mg/kg): 11.3 µM·h
AUC (in vivo; male, 100 mg/kg): 85.9 µM·h
AUC (in vivo; male, 300 mg/kg): 125 µM·h
AUC(0-t) (clinical): 6.88 µM·h
Cmax (clinical): 124 nM
Tmax (clinical): 29 h
Safety margin (AUC24) at the NOEL over expected clinical exposure [8]: ~6 fold
AUC ([9]; female, 10 mg/kg): 38.6 µM·h
AUC ([9]; female, 30 mg/kg): 103 µM·h
AUC ([9]; female, 100 mg/kg/day): 431 µM·h
AUC ([9]; male, 10 mg/kg): 54.9 µM·h
AUC ([9]; male, 30 mg/kg): 121 µM·h
AUC ([9]; male, 100 mg/kg/day): 1770 µM·h

C[C@@H](NC(=O)Cc1ccc(C(C)(C)O)cc1)c1ccc(OCC(F)(F)F)cn1 [M02]
Css, estimated mean [1, 17]: 683 nM
Steady-state AUC24, estimated mean [1, 17]: 15.312 µM·h
Css, estimated mean [1, 18]: 566 nM
Steady-state AUC24, estimated mean [1, 18]: 13.584 µM·h
Css, estimated mean ([1]; M02, young men): 343 nM
Steady-state AUC24, estimated mean ([1]; M02, young men): 8.232 µM·h
Cu, ss_adj [1]: 10.1 nM
Cp, ss [1]: 343 nM
Cu, ss [1]: 48 nM
IC50 (Cav3.3; [12]): 17 nM
IC50 (Cav3.3; [13]): 2840 nM
State dependence (Cav3.3): 166 fold
Percent of inhibition (WAG/Rij rats): 67%
AUC (Pharmacokinetics in rats; female): 31 µM·h
AUC (Pharmacokinetics in rats; male): 10 µM·h
AUC (Pharmacokinetics in dogs): 7.8 µM·h
AUC [2]: 36.6 µM·h
fraction unbound [3, 14]: 0.29
fraction unbound ([3]; rats, read-out: free fraction): 0.29
fraction unbound [4, 15]: 0.18
fraction unbound ([4]; dogs, read-out: free fraction): 0.18
fraction unbound [4, 16]: 0.18
fraction unbound [5]: 0.17
P-glycoprotein substrate or inhibitor activity (P-glycoprotein): showed increased efflux in the rat and monkey assays
Inhibition of BCRP-mediated transport ([6]; up to 30 μM): did not inhibit
Day 90 Free Margin for AUC24 at NOAEL for Rat 90-Day Toxicology ([7]; Female rats vs human 10 mg BID): 129
Day 90 Free Margin for Cmax at NOAEL for Rat 90-Day Toxicology ([7]; Male rats vs human 10 mg BID (fed)): 117
Day 90 Free Margin for AUC24 at NOAEL for Dog 90-Day Toxicology ([7]; female): 33
Day 90 Free Plasma AUC24 at NOAEL for Dog 90-Day Toxicology ([7]; female): 37,620 nM · hr
Day 90 Free Plasma AUC24 at NOAEL for Rat 90-Day Toxicology ([7]; female, rat): 148,190 nM · hr
Day 90 Free Margin for AUC24 at NOAEL for Dog 90-Day Toxicology ([7]; male): 33
Day 90 Free Plasma AUC24 at NOAEL for Dog 90-Day Toxicology ([7]; male): 38,340 nM · hr
Day 90 Free Margin for AUC24 at NOAEL for Rat 90-Day Toxicology ([7]; male, rat): 65
Day 90 Free Plasma AUC24 at NOAEL for Rat 90-Day Toxicology ([7]; male, rat): 74,820 nM · hr
AUC (in vivo; female, 5 mg/kg): 16.7 µM·h
AUC (in vivo; female, 15 mg/kg): 54.8 µM·h
AUC (in vivo; female, 100 mg/kg): 567 µM·h
AUC (in vivo; female, 300 mg/kg): 511 µM·h
AUC (in vivo; male, 5 mg/kg): 12 µM·h
AUC (in vivo; male, 15 mg/kg): 26.1 µM·h
AUC (in vivo; male, 100 mg/kg): 186 µM·h
AUC (in vivo; male, 300 mg/kg): 258 µM·h
AUC(0-t) (clinical): 3.67 µM·h
Cmax (clinical): 122 nM
Safety margin (AUC24) at the NOEL over expected clinical exposure [8]: ~23 fold
AUC ([9]; female, 10 mg/kg): 103 µM·h
AUC ([9]; female, 30 mg/kg): 209 µM·h
AUC ([9]; female, 100 mg/kg/day): 339 µM·h
AUC ([9]; male, 10 mg/kg): 149 µM·h
AUC ([9]; male, 30 mg/kg): 213 µM·h
AUC ([9]; male, 100 mg/kg/day): 1800 µM·h
